The assay deals with Tetranychus urticae. As to the kind of experiment: Tetranychus urticae (Two Spotted Spider Mite) contact/feeding activity, adult mortality on sprayed bean plants. The assay is classed as in vivo. On the procedure:
Tetranychus urticae (Two Spotted Spider Mite)
(Contact/Feeding Activity)
Bean plants are infested with mite populations of mixed ages. 1 day after infestation, plants are treated in a spray chamber with diluted test solutions. 1 and 8 days later, samples are checked for adult mortality. 2 replicates per treatment were evaluated.
Data is not shown for experiments where there was no insect mortality when the compounds were applied alone and in combination. When a compound applied alone gave no control at a particular rate, it is assumed that lower rates of that compound alone also give no control.

Take `CC1(C)[C@H](C(=O)O[C@H](C#N)c2cccc(Oc3ccccc3)c2)[C@@H]1/C=C(\Cl)C(F)(F)F` (racemic) [LCYH, lambda cyhalothrin]: the “LCYH observed control %” value runs as follows: (LCYH alone 0.781 ppm) 0%; (LCYH alone 1.562 ppm) 0%; (LCYH alone 3.125 ppm) 0%; (LCYH alone 6.25 ppm) 25%; (LCYH alone 12.5 ppm) 75%; (LCYH alone 25 ppm) 80%. The “LCYH observed control %” value was determined as 85% (LCYH alone 50 ppm) and 95% (LCYH alone 100 ppm).
For `CC(C)c1cc(Oc2ccccc2)cc(C(C)C)c1NC(=S)NC(C)(C)C` [DFN, diafenthiuron], the “DFN observed control %” value runs as follows: (DFN alone 1.562 ppm) 0%; (DFN alone 3.125 ppm) 0%; (DFN alone 6.25 ppm) 25%; (DFN alone 12.5 ppm) 60%; (DFN alone 25 ppm) 95%.
`CN1COCN(Cc2cnc(Cl)s2)/C1=N\[N+](=O)[O-]` [TMX, thiamethoxam]: the “TMX observed control %” value (TMX alone 50 ppm) is reported as 0%, the “TMX observed control %” value (TMX alone 100 ppm) stood at 0%, the “TMX observed control %” value (TMX alone 200 ppm) was determined as 0% and the “TMX observed control %” value (TMX alone 400 ppm) came to 0%.

The record behind these values is patent US9402399B2, “Pesticidal mixtures including isoxazoline derivatives” (Syngenta Participations AG, priority 2011, dated 2016).
